The supplement of paper PMC10307832

Tests used:
Test in all cases: relative viability (nuclei count vs DMSO), 5 days (fraction); higher = more cells survive
ABC-1 = tested on: ABC-1
Procedure, shortened: (§1)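 Relative viability divides the nuclei count in treated wells by that in vehicle wells. Lung cancer cell lines were seeded in 1536-well plates, dosed by pin tool the next day, and fixed and stained after 5 days in one step with final 0.05% Triton X-100, 1% formaldehyde and 1 ug/ml Hoechst. Dosing was a single drug or a fixed anchor-drug dose plus five library-drug doses (not always all listed) in √10 steps, and values are medians of duplicate plates imaged at 4×.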

COR-L23 = tested on: COR-L23
Procedure, shortened: as §1

ChaGo-K-1 = tested on: ChaGo-K-1
Procedure, shortened: as §1

NCI-H1437 = tested on: NCI-H1437
Procedure, shortened: as §1

NCI-H1623 = tested on: NCI-H1623
Procedure, shortened: as §1

NCI-H1648 = tested on: NCI-H1648
Procedure, shortened: as §1

NCI-H1651 = tested on: NCI-H1651
Procedure, shortened: as §1

SK-MES-1 = tested on: SK-MES-1
Procedure, shortened: as §1

SW 1573 = tested on: SW 1573
Procedure, shortened: as §1

## COc1nc(C)cnc1NS(=O)(=O)c1cccnc1-c1ccc(-c2nnco2)cc1 [Zibotentan] + COc1cccc2cc(-c3nc([C@H]4CC[C@H](C(=O)O)CC4)n4ncnc(N)c34)[nH]c12 [OSI-027] (partner 0.5 µM)
ABC-1; first compound 0.08 µM
  relative viability: 0.608
ABC-1; first compound 0.253 µM
  relative viability: 0.542
ABC-1; first compound 0.8 µM
  relative viability: 0.53
ABC-1; first compound 2.53 µM
  relative viability: 0.527
COR-L23; first compound 0.08 µM
  relative viability: 0.713
COR-L23; first compound 0.253 µM
  relative viability: 0.651
COR-L23; first compound 0.8 µM
  relative viability: 0.789
COR-L23; first compound 2.53 µM
  relative viability: 0.798
ChaGo-K-1; first compound 0.08 µM
  relative viability: 0.547
ChaGo-K-1; first compound 0.253 µM
  relative viability: 0.579
ChaGo-K-1; first compound 0.8 µM
  relative viability: 0.583
ChaGo-K-1; first compound 2.53 µM
  relative viability: 0.604
NCI-H1437; first compound 0.08 µM
  relative viability: 0.845
NCI-H1437; first compound 0.253 µM
  relative viability: 0.84
NCI-H1437; first compound 0.8 µM
  relative viability: 0.855
NCI-H1437; first compound 2.53 µM
  relative viability: 0.919
NCI-H1623; first compound 0.08 µM
  relative viability: 0.423
NCI-H1623; first compound 0.253 µM
  relative viability: 0.42
NCI-H1623; first compound 0.8 µM
  relative viability: 0.424
NCI-H1623; first compound 2.53 µM
  relative viability: 0.443
NCI-H1648; first compound 0.08 µM
  relative viability: 0.255
NCI-H1648; first compound 0.253 µM
  relative viability: 0.241
NCI-H1648; first compound 0.8 µM
  relative viability: 0.256
NCI-H1648; first compound 2.53 µM
  relative viability: 0.242
NCI-H1651; first compound 0.08 µM
  relative viability: 0.694
NCI-H1651; first compound 0.253 µM
  relative viability: 0.641
NCI-H1651; first compound 0.8 µM
  relative viability: 0.701
NCI-H1651; first compound 2.53 µM
  relative viability: 0.72
SK-MES-1; first compound 0.08 µM
  relative viability: 0.595
SK-MES-1; first compound 0.253 µM
  relative viability: 0.228
SK-MES-1; first compound 0.8 µM
  relative viability: 0.555
SK-MES-1; first compound 2.53 µM
  relative viability: 0.702
SW 1573; first compound 0.08 µM
  relative viability: 0.651
SW 1573; first compound 0.8 µM
  relative viability: 0.699
SW 1573; first compound 2.53 µM
  relative viability: 0.659

## O=c1cc(N2CCOCC2)oc2c(-c3cccc4c3sc3ccccc34)cccc12 + Cc1cc(Nc2cc(N3CCN(C)CC3)nc(Sc3ccc(NC(=O)C4CC4)cc3)n2)n[nH]1 [Tozasertib] (partner 0.1 µM)
ABC-1; first compound 0.01 µM
  relative viability: 0.186
ABC-1; first compound 0.03162 µM
  relative viability: 0.178
ABC-1; first compound 0.1 µM
  relative viability: 0.222
ABC-1; first compound 0.3162 µM
  relative viability: 0.21
ABC-1; first compound 1 µM
  relative viability: 0.164
COR-L23; first compound 0.01 µM
  relative viability: 0.213
COR-L23; first compound 0.03162 µM
  relative viability: 0.231
COR-L23; first compound 0.1 µM
  relative viability: 0.18
COR-L23; first compound 0.3162 µM
  relative viability: 0.234
COR-L23; first compound 1 µM
  relative viability: 0.225
ChaGo-K-1; first compound 0.01 µM
  relative viability: 0.232
ChaGo-K-1; first compound 0.03162 µM
  relative viability: 0.209
ChaGo-K-1; first compound 0.1 µM
  relative viability: 0.198
ChaGo-K-1; first compound 0.3162 µM
  relative viability: 0.222
ChaGo-K-1; first compound 1 µM
  relative viability: 0.209
NCI-H1437; first compound 0.01 µM
  relative viability: 0.351
NCI-H1437; first compound 0.03162 µM
  relative viability: 0.406
NCI-H1437; first compound 0.1 µM
  relative viability: 0.428
NCI-H1437; first compound 0.3162 µM
  relative viability: 0.431
NCI-H1437; first compound 1 µM
  relative viability: 0.373
NCI-H1623; first compound 0.01 µM
  relative viability: 0.472
NCI-H1623; first compound 0.03162 µM
  relative viability: 0.4
NCI-H1623; first compound 0.1 µM
  relative viability: 0.394
NCI-H1623; first compound 0.3162 µM
  relative viability: 0.411
NCI-H1623; first compound 1 µM
  relative viability: 0.343
NCI-H1648; first compound 0.01 µM
  relative viability: 0.503
NCI-H1648; first compound 0.03162 µM
  relative viability: 0.501
NCI-H1648; first compound 0.1 µM
  relative viability: 0.547
NCI-H1648; first compound 0.3162 µM
  relative viability: 0.621
NCI-H1648; first compound 1 µM
  relative viability: 0.504
NCI-H1651; first compound 0.01 µM
  relative viability: 0.687
NCI-H1651; first compound 0.03162 µM
  relative viability: 0.848
NCI-H1651; first compound 0.1 µM
  relative viability: 0.844
NCI-H1651; first compound 0.3162 µM
  relative viability: 0.72
NCI-H1651; first compound 1 µM
  relative viability: 0.751
SK-MES-1; first compound 0.01 µM
  relative viability: 0.964
SK-MES-1; first compound 0.03162 µM
  relative viability: 0.935
SK-MES-1; first compound 0.1 µM
  relative viability: 1.05
SK-MES-1; first compound 0.3162 µM
  relative viability: 0.897
SK-MES-1; first compound 1 µM
  relative viability: 0.875
SW 1573; first compound 0.01 µM
  relative viability: 0.198
SW 1573; first compound 0.03162 µM
  relative viability: 0.159
SW 1573; first compound 0.1 µM
  relative viability: 0.164
SW 1573; first compound 0.3162 µM
  relative viability: 0.157
SW 1573; first compound 1 µM
  relative viability: 0.166

## O=c1cc(-c2cccc3c2Sc2ccccc2S3)oc(N2CCOCC2)c1 + Cc1cc(Nc2cc(N3CCN(C)CC3)nc(Sc3ccc(NC(=O)C4CC4)cc3)n2)n[nH]1 [Tozasertib] (partner 0.1 µM)
ABC-1; first compound 0.08 µM
  relative viability: 0.184
ABC-1; first compound 0.253 µM
  relative viability: 0.203
ABC-1; first compound 0.8 µM
  relative viability: 0.158
ABC-1; first compound 2.53 µM
  relative viability: 0.181
ABC-1; first compound 8 µM
  relative viability: 0.156
COR-L23; first compound 0.08 µM
  relative viability: 0.202
COR-L23; first compound 0.253 µM
  relative viability: 0.202
COR-L23; first compound 0.8 µM
  relative viability: 0.188
COR-L23; first compound 2.53 µM
  relative viability: 0.148
COR-L23; first compound 8 µM
  relative viability: 0.172
ChaGo-K-1; first compound 0.08 µM
  relative viability: 0.213
ChaGo-K-1; first compound 0.253 µM
  relative viability: 0.215
ChaGo-K-1; first compound 0.8 µM
  relative viability: 0.218
ChaGo-K-1; first compound 2.53 µM
  relative viability: 0.21
ChaGo-K-1; first compound 8 µM
  relative viability: 0.209
NCI-H1437; first compound 0.08 µM
  relative viability: 0.385
NCI-H1437; first compound 0.253 µM
  relative viability: 0.477
NCI-H1437; first compound 0.8 µM
  relative viability: 0.43
NCI-H1437; first compound 2.53 µM
  relative viability: 0.381
NCI-H1437; first compound 8 µM
  relative viability: 0.435
NCI-H1623; first compound 0.08 µM
  relative viability: 0.445
NCI-H1623; first compound 0.253 µM
  relative viability: 0.414
NCI-H1623; first compound 0.8 µM
  relative viability: 0.393
NCI-H1623; first compound 2.53 µM
  relative viability: 0.4
NCI-H1623; first compound 8 µM
  relative viability: 0.43
NCI-H1648; first compound 0.08 µM
  relative viability: 0.492
NCI-H1648; first compound 0.253 µM
  relative viability: 0.386
NCI-H1648; first compound 0.8 µM
  relative viability: 0.426
NCI-H1648; first compound 2.53 µM
  relative viability: 0.411
NCI-H1648; first compound 8 µM
  relative viability: 0.399
NCI-H1651; first compound 0.08 µM
  relative viability: 0.669
NCI-H1651; first compound 0.253 µM
  relative viability: 0.668
NCI-H1651; first compound 0.8 µM
  relative viability: 0.625
NCI-H1651; first compound 2.53 µM
  relative viability: 0.672
NCI-H1651; first compound 8 µM
  relative viability: 0.669
SK-MES-1; first compound 0.08 µM
  relative viability: 0.902
SK-MES-1; first compound 0.253 µM
  relative viability: 1.04
SK-MES-1; first compound 0.8 µM
  relative viability: 0.879
SK-MES-1; first compound 2.53 µM
  relative viability: 0.848
SK-MES-1; first compound 8 µM
  relative viability: 0.852
SW 1573; first compound 0.08 µM
  relative viability: 0.175
SW 1573; first compound 0.253 µM
  relative viability: 0.186
SW 1573; first compound 0.8 µM
  relative viability: 0.197
SW 1573; first compound 2.53 µM
  relative viability: 0.175
SW 1573; first compound 8 µM
  relative viability: 0.125

## CCN(CC)CCCCNc1ncc2cc(-c3cc(OC)cc(OC)c3)c(NC(=O)NC(C)(C)C)nc2n1 + COc1cccc2cc(-c3nc([C@H]4CC[C@H](C(=O)O)CC4)n4ncnc(N)c34)[nH]c12 [OSI-027] (partner 0.5 µM)
ABC-1; first compound 0.01 µM
  relative viability: 0.433
ABC-1; first compound 0.03162 µM
  relative viability: 0.389
ABC-1; first compound 0.1 µM
  relative viability: 0.55
ABC-1; first compound 0.3162 µM
  relative viability: 0.499
ABC-1; first compound 1 µM
  relative viability: 0.402
COR-L23; first compound 0.01 µM
  relative viability: 1.19
COR-L23; first compound 0.03162 µM
  relative viability: 0.873
COR-L23; first compound 0.1 µM
  relative viability: 1.06
COR-L23; first compound 0.3162 µM
  relative viability: 1.07
COR-L23; first compound 1 µM
  relative viability: 0.503
ChaGo-K-1; first compound 0.01 µM
  relative viability: 0.618
ChaGo-K-1; first compound 0.03162 µM
  relative viability: 0.671
ChaGo-K-1; first compound 0.1 µM
  relative viability: 0.619
ChaGo-K-1; first compound 0.3162 µM
  relative viability: 0.559
ChaGo-K-1; first compound 1 µM
  relative viability: 0.513
NCI-H1437; first compound 0.01 µM
  relative viability: 0.978
NCI-H1437; first compound 0.03162 µM
  relative viability: 0.876
NCI-H1437; first compound 0.1 µM
  relative viability: 0.925
NCI-H1437; first compound 0.3162 µM
  relative viability: 0.874
NCI-H1437; first compound 1 µM
  relative viability: 0.857
NCI-H1623; first compound 0.01 µM
  relative viability: 0.419
NCI-H1623; first compound 0.03162 µM
  relative viability: 0.385
NCI-H1623; first compound 0.1 µM
  relative viability: 0.381
NCI-H1623; first compound 0.3162 µM
  relative viability: 0.469
NCI-H1623; first compound 1 µM
  relative viability: 0.383
NCI-H1648; first compound 0.01 µM
  relative viability: 0.311
NCI-H1648; first compound 0.03162 µM
  relative viability: 0.228
NCI-H1648; first compound 0.1 µM
  relative viability: 0.26
NCI-H1648; first compound 0.3162 µM
  relative viability: 0.24
NCI-H1648; first compound 1 µM
  relative viability: 0.243
NCI-H1651; first compound 0.01 µM
  relative viability: 0.7
NCI-H1651; first compound 0.03162 µM
  relative viability: 0.737
NCI-H1651; first compound 0.1 µM
  relative viability: 0.782
NCI-H1651; first compound 0.3162 µM
  relative viability: 0.79
NCI-H1651; first compound 1 µM
  relative viability: 0.695
SK-MES-1; first compound 0.01 µM
  relative viability: 0.627
SK-MES-1; first compound 0.03162 µM
  relative viability: 0.654
SK-MES-1; first compound 0.1 µM
  relative viability: 0.58
SK-MES-1; first compound 0.3162 µM
  relative viability: 0.81
SK-MES-1; first compound 1 µM
  relative viability: 0.521
SW 1573; first compound 0.01 µM
  relative viability: 0.578
SW 1573; first compound 0.03162 µM
  relative viability: 0.693
SW 1573; first compound 0.1 µM
  relative viability: 0.839
SW 1573; first compound 0.3162 µM
  relative viability: 0.691
SW 1573; first compound 1 µM
  relative viability: 0.629
